The source of these data is patent publication US20140121235A1, “Method for Treating S6K-Overexpressing Cancers” (Rush University Medical Center, priority 2012, published 2014).

Structures are written as SMILES.

Assay [1] concerns ribosomal protein S6^S235/S236 phosphorylation. Nature of the assay: Western blot of S6 phosphorylation in A375 cells. Format: cell-based. To be noted: Homo sapiens, A-375; read-out: IC50 to inhibit S6 phosphorylation in cell culture. As to the method: (§1) A375 cells seeded in a 6-well plate were starved in DMEM medium containing 0.5% FBS for 2 hr and treated with the indicated concentration of A77 1726 or PLX 4720 (1 μM) for another 2 hr (A) or treated with A77 1726 (100 μM) for the indicated time (B & C). Cells were harvested and analyzed for protein phosphorylation by specific antibodies as indicated. Protein loading was monitored by stripping membrane and re-probing with antibodies against non-phosphorylated proteins. […] A375 cells seeded in a 6-well plate were starved in DMEM medium containing 05% FBS for 2 hr and treated with the indicated concentration of A77 1726 in the absence or presence of uridine (200 μM). Phosphorylated and total proteins were analyzed by Western blot as described above.
(§2) A375 cells seeded in 6-well plates were starved in DMEM medium containing 0.5% FBS for 2 hr and then pre-treated with vehicle (0.1% dimethyl sulfoxide), LY294002 (10 μM) (A), PPP (1 μM) (B), or the inhibitors of the MAP kinase pathway (PLX4720, 1 μM; U0126, 10 μM; PD98059, 10 μM) (C) for 1 hr. Cells were then treated with A77 1726 (100 μM) or rapamycin (20 nM) as indicated for 2 hr. Cells were harvested and analyzed for protein phosphorylation by specific antibodies as indicated. Protein loading was monitored by stripping membrane and re-probing with antibodies against non-phosphorylated proteins.
(§3) Cells grown in 6-well plates were harvested and lysed in NP-40 lysis buffer (50 mM Tris-HCI (pH 8.0), 150 mM NaCl, 1% NP-40, 5 mM EDTA, 10 μg/ml aprotinin, 10 μg/ml leupeptin, and 1 mM phenylmethylsulfonyl fluoride). After incubation on ice for 30 min, the cell lysates were prepared by spinning down at 4° C., 15,000 rpm for 15 min. After electrophoresis and transfer to Immobolin membrane, proteins of interest were probed with their specific antibodies, followed by horseradish peroxidase-conjugated goat anti-rabbit IgG and SuperSignal Western Pico enhanced chemiluminoscence substrate (Pierce Chemical Co., Rockford, Ill.).
(§4) The PI-3 and MAP kinase pathways play an important role in cell proliferation, differentiation, and cell cycle progress. Multiple genes in these two pathways are frequently mutated and have a commanding role in driving tumorigenesis and tumor cell proliferation (2; 3). […] Here we tested whether A77 1726 affected the activation of MAP and PI-3 kinase pathways. A375 cells grown in 6-well plates were starved in the media containing 0.5% FBS for 2 hr and then treated with the indicated concentration of A77 1726. […] We next explored the effect of A77 1726 in phosphorylation of the molecules in the PI-3 kinase pathway.
(A western blot detects proteins with antibodies after separation by electrophoresis.)

The target in assay [2] is recombinant p70 S6 kinase (S6K1) (Homo sapiens, UniProt P23443). Nature of the assay: In vitro p70 S6 kinase assay (ADP-Glo Kinase assay system). Type of assay: biochemical. To be noted: 30 min pre-incubation, ATP 10 μM, 1 hr, read-out: IC50, inhibition of recombinant S6K1 activity. How it is done: Leflunomide and A77 1726 diluted at the final concentrations as indicated were pre-mixed with S6K1 for 30 min, followed by the addition of peptide substrate of S6K1 and incubation for 1 hr. S6K1 activity was measured by using a ADP-Glo™ system. The experiment was repeated with similar results. The data represents the mean±standard deviation from one experiment in triplicate.
Sequence of recombinant p70 S6 kinase (S6K1) (P23443 whole entry): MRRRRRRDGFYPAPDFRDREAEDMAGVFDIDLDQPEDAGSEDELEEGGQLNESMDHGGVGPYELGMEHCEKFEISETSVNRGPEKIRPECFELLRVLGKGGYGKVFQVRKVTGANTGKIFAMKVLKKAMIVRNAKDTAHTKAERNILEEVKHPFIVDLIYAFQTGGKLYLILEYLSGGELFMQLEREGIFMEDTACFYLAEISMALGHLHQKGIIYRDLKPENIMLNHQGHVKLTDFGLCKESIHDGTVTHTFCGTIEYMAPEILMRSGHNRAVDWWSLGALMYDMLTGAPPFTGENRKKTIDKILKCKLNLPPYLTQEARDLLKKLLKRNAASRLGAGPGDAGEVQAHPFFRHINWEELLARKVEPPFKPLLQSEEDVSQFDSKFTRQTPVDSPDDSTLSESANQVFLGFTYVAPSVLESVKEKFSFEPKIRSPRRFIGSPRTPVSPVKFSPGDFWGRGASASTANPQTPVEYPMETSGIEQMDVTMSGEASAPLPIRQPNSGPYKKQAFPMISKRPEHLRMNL
The ability of lefiunomide and A77 1726 to inhibit p70 S6 kinase assay was conducted by using an ADP-Glo™ Kinase assay system (Promega Corporation, Madison, Wis.). Briefly, A77 1726 or leflunomide diluted in the kinase buffer was mixed with recombinant p70 S6 kinase (100 ng/reaction) and incubated at room temperature for 30 min. Peptide substrate of p70 S6 kinase (5 μg/reaction) and ATP (10 μM, final concentration) was added, with a total final volume of 25 μl. After incubation for 1 hr, ADP-Glo™ reagent (25 μl) was added to each reaction. After incubation for 40 min, kinase detection substrate (luciferin) (50 μl/reaction) was added. After incubation fix 30 min, luciferase activity was measured by reading in a luminescence plate reader. The experiment was conducted in triplicate and repeated once with similar results. The data from one experiment were presented as mean±standard deviation.
For orientation: ADP-Glo turns the ADP formed in a reaction into a luminescent signal.

Assay [3] deals with Raf-1 phosphorylation. The experiment in a line: Western blot of Raf-1 phosphorylation in A375 cells. Type of assay: cell-based. How it is done:
A375 cells seeded in a 6-well plate were starved in DMEM medium containing 0.5% FBS for 2 hr and treated with the indicated concentration of A77 1726 or PLX 4720 (1 μM) for another 2 hr (A) or treated with A77 1726 (100 μM) for the indicated time (B & C). Cells were harvested and analyzed for protein phosphorylation by specific antibodies as indicated. Protein loading was monitored by stripping membrane and re-probing with antibodies against non-phosphorylated proteins. (D) Uridine fails to reverse the effect of A77 1726 on the PI-3 and MAP kinase pathways. A375 cells seeded in a 6-well plate were starved in DMEM medium containing 05% FBS for 2 hr and treated with the indicated concentration of A77 1726 in the absence or presence of uridine (200 μM). Phosphorylated and total proteins were analyzed by Western blot as described above.
Cells grown in 6-well plates were harvested and lysed in NP-40 lysis buffer (50 mM Tris-HCI (pH 8.0), 150 mM NaCl, 1% NP-40, 5 mM EDTA, 10 μg/ml aprotinin, 10 μg/ml leupeptin, and 1 mM phenylmethylsulfonyl fluoride). After incubation on ice for 30 min, the cell lysates were prepared by spinning down at 4° C., 15,000 rpm for 15 min. […]

Assay [4] deals with ERK1/2^T202/Y204 and MEK1/2^S217/S221 phosphorylation. Nature of the assay: Western blot of MAP kinase pathway phosphorylation in A375 cells. Format: cell-based. How it is done:
as §1, §2, §3, §4

A word on the IC50: it is the concentration that inhibits the measured activity by half. As to `Cc1oncc1C(=O)Nc1ccc(C(F)(F)F)cc1` [leflunomide], the IC50 is 50 to 75 µM in assay [1] and approximately 55 µM in assay [2]. The “effect on Raf-1 phosphorylation” value in assay [3] was “no increased Raf-1 phosphorylation”. The “effect on ERK1/2 and MEK phosphorylation” value in assay [4] (A375 cells starved in 0.5% FBS, A77 1726 or leflunomide at indicated concentrations, 2 hr) is “rapidly and potently induced”. The “potency in inducing feedback activation of the MAP kinase pathway” value in assay [4] (A375 cells, compared with A77 1726) was “slightly more potent than A77 1726”.
